Data set [1] is described as follows: Drug solubility in receptor solutions and excipient solutions. The format is physicochemical.
Data set [2] is described as follows: Osmotic pressure of saturated solutions of drug and excipients. As to conditions: saturated solution of the labelled drug or of drug and the other tablet excipients; also printed as about 3 atm. The format is physicochemical.

Experimental findings from patent publication EP0357369B1, “The use of asymetric membranes in delivery devices” (priority 1988, dated 1990) are described below.

In brackets after ≈: the same amount, converted by molar mass. Read-outs that look alike come from different tables or passages of the source.

Take `COc1cc2c(N)nc(N3CCN(C(=O)OCC(C)(C)O)CC3)nc2c(OC)c1OC` [trimazosin]: the “Trimazosin solubility lower in a saturated calcium lactate solution than in water” value in data set [1] is “about 40%”. For the same compound, the “solubility of trimazosin in the magnesium sulfate solution” value in data set [1] (2.4-wt% magnesium sulfate solution compared with water) is listed as “the same as the trimazosin solubility in water”. The solubility of trimazosin result in data set [1] (water and 4 wt% magnesium sulfate solution) is on record as “the same in both solutions”. Moreover, the “osmotic pressure of a saturated solution” value in data set [2] is given as “about 304 kPa”.
A word on the solubility: it is how much of the substance goes into solution per volume. Regarding `COc1cc2nc(N3CCN(C(=O)C4COc5ccccc5O4)CC3)nc(N)c2cc1OC` (centres unmarked) [doxazosin], the solubility was approximately 250 µg/mL (≈ 0.554 mM) in data set [1] (aqueous buffer, gastric buffer pH 1.5, read-out: Doxazosin solubility in the gastric buffer); less than 10 µg/mL in data set [1] (aqueous buffer, intestinal buffer pH 7.5, read-out: Doxazosin solubility in the intestinal buffer); approximately 10000 µg/mL (≈ 22.1 mM) in data set [1] (dextrose solutions adjusted to pH 4 with tartaric acid, read-out: doxazosin solubility in all the dextrose solutions); 10000 µg/mL (≈ 22.1 mM) in data set [1] (water, same in lactose and dextrose solutions adjusted to pH 4 with tartaric acid, read-out: doxazosin solubility in water).
